{
  "source": "patent US8987217B2",
  "about": "“Modified saponins for the treatment of fungal infections” (The General Hospital Corporation, priority 2010, dated 2015)",
  "key": {"C. albicans biofilm": {"test_system": "C. albicans biofilm", "experiment": "biofilm formation on silicone pads (dry mass)", "assay_type": "cell-based", "conditions": "10 μg/mL (below the MIC), compared with caspofungin", "description": "The minimal inhibitory concentration (MIC) was determined for strains DAY185, 98-145, 95-120 (White et al., Antimicrob Agents Chemother, 46:1704-1713 (2002)), and A15-10 (Garcia-Effron et al., Antimicrob Agents Chemother, 53:112-122 (2009)) spectrophotometrically using RPMI 1640 media (Mediatech, Inc.) following the standard CLSI microdilution protocol M27-A (National Committee for Clinical Laboratory Standards, Reference method for broth dilution susceptibility testing of yeasts. Tentative standard M27-A, Villanova, Pa. (1995)). Biofilm assays using identified compounds were conducted as previously described (Richard et al., Eukaryot Cell, 4:1493-1502 (2005)). The biofilm dry mass was determined by drying the silicone squares in a chemical hood, and weighing the resulting biofilm mass subtracting the previously weighed mass of the silicone square. […]\nCaspofungin (Merck) served as a known antifungal compound control. In vitro hyphal inhibition was assessed by incubation of DAY185 in RPMI 1640 media at 37° C. […] The ability of the antifungal compound A16, at either 2 or 4 μg/mL, to induce osmotic stress was assessed using DAY185 grown in a 96 well microtiter plate containing RPMI 1640 media and NaCl, ranging in concentrations from 0-2 M in 0.25 M increments. The growth of the fungus was measured spectrophotometrically after 48 hours of growth at 35° C."}, "C. albicans": {"test_system": "C. albicans", "experiment": "C. elegans-C. albicans co-inoculation assay, nematode survival", "assay_type": "in vivo", "description": "(§1) The procedure for the co-inoculation antifungal compound screen were conducted as previously described (Okoli et al., PLoS ONE, 4:e7025 (2009); Tampakakis et al., Nat Protocols, 3:1925-1931 (2008)), using the C. albicans strain DAY185 (Davis et al., Infect Immun, 68:5953-5959 (2000)) and the C. elegans glp-4;sek-1 double mutant.\n(§2) This assay allows simultaneous assessment of a compound's potential toxicity and the ability to promote the survival of the nematode in the presence of C. albicans, including modes of action not traditionally considered in antifungal assays such as impeding a fungal virulence factor or promoting host immune response. We performed a screen of 2,560 natural products representing a fraction of the Analyiticon Discovery compound collection (ac-discovery.com) housed at the Broad Institute of Harvard and MIT (Cambridge, Mass.). […] These natural products identified in the primary screen were retested and confirmed (FIG. 1; Table 1). […] Moreover, although the antifungal effects of some of these saponins have been reported (Sata et al., Biosci Biotechnol Biochem, 62:1904-1911 (1998); Ohtani et al., Phytochem, 33:83-86 (1993)), their efficacy against Candida spp. has not been studied.\nAfter confirmation of these hits, dose response experiments were conducted to determine the concentration that provided maximum nematode survival. The compounds conferred a range of nematode survival from 27% (compound A6) to 93% (compounds A2, A7, A24, and A25), however, with the exception of A6, all compounds conferred a nematode survival over 65% (FIG. 1)."}, "C. albicans strains": {"test_system": "C. albicans strains", "experiment": "MIC by standard CLSI microdilution protocol M27-A", "assay_type": "cell-based", "description": "Using the standard Clinical and Laboratory Standards Institute (CLSI) procedure, the in vitro MIC of these two compounds was determined on the following C. albicans strains: DAY185 (the standard strain used throughout the screen), two fluconazole-resistant strains of C. albicans, and an echinocandin-resistant strain of C. albicans (Table 2).\nThe minimal inhibitory concentration (MIC) was determined for strains DAY185, 98-145, 95-120 (White et al., Antimicrob Agents Chemother, 46:1704-1713 (2002)), and A15-10 (Garcia-Effron et al., Antimicrob Agents Chemother, 53:112-122 (2009)) spectrophotometrically using RPMI 1640 media (Mediatech, Inc.) following the standard CLSI microdilution protocol M27-A (National Committee for Clinical Laboratory Standards, Reference method for broth dilution susceptibility testing of yeasts. Tentative standard M27-A, Villanova, Pa. (1995)). Biofilm assays using identified compounds were conducted as previously described (Richard et al., Eukaryot Cell, 4:1493-1502 (2005)). The biofilm dry mass was determined by drying the silicone squares in a chemical hood, and weighing the resulting biofilm mass subtracting the previously weighed mass of the silicone square. Biofilm pictures were captured using a confocal laser microscope (TCS NT, Leica Microsystems). Cells were grown at 30° C., exposed to PS for 30 min, and then washed with PBS."}, "C. elegans": {"test_system": "C. elegans", "experiment": "toxicity to the nematode in dose response experiments", "conditions": "dose response experiments, higher concentrations", "text": "as §2\nRepresentatives of the saponins family are able to disrupt cellular membranes and the lytic activity on erythrocytes has been used as an assay for some saponins Francis et al., British Journal of Nutrition, 88:587-605 (2002)). This property is derived from the affinity of some saponins for binding cholesterol forming insoluble pores composed of the sterol and saponins (Bangham et al., Nature, 196:952-953(1962); Glauert et al., Nature, 196:953-955 (1962)). […] The dose-response experiments previously used to determine the EC50 and approximate the MIC can also indicate if the saponins maybe toxic to C. elegans and potentially to mammalian cells."}, "[1]": {"test_system": "C. albicans strain DAY185", "experiment": "in vitro antifungal activity (MIC) in the co-inoculation assay, turbidity read visually", "assay_type": "cell-based", "conditions": "co-inoculation assay, two-fold serial dilutions, C. albicans DAY185", "description": "as §1\nThe determination of the lowest concentration of the selected compounds showing in vitro antifungal activity was accomplished by following the steps detailed in the co-inoculation assay, using two-fold serial dilutions of the test compounds."}, "C. albicans cells": {"test_system": "C. albicans cells", "experiment": "photosensitizer uptake by fluorescence spectrofluorimetry", "assay_type": "cell-based", "conditions": "addition of A16 to RB, ce6, PEI-ce6", "description": "In order to confirm that the increase in phototoxicity observed by combining the different PS with A16 is actually due to an increase of cellular uptake of the PS by the cells and to document that the antifungal efficacy of saponins against C. albicans is associated with increased permeability, the amount of dye within the cell was measured by fluorescence spectrofluorimetry.\nCell suspensions (10^8 cells/mL) were incubated in the dark as above using the same concentrations as for the PDI assays measured as μM PS equivalent (final concentration in incubation medium). Incubations were carried out in triplicate. Cell suspensions were centrifuged (12000 rpm, 1 min) and washed twice in 1 mL sterile PBS. The cell pellet was dissolved in 1.5 mL 0.1 M NaOH/1% SDS for 24 h to yield a homogenous solution. Uptake was determined by measurement of fluorescence in black 96-well flat-bottom plates (Costar) in a final volume of 200 μL using a Spectramax Gemini spectrofluorimeter (Molecular Devices) at 400 nmex/580-700 nmem for ce6, PEI-ce6 and 552 nmex/555-620 nmem for RB. Uptake values were obtained as previously described (Tegos et al., Antimicrob Agents Chemother, 50:196-203(2006)).\nThe cellular uptake of dye can be expressed as molecules per cell by correlation of the extracted PS concentration with the number of C. albicans cells present."}},
  "note": "Like-named read-outs stand apart in the source and are kept apart here.",
  "data": [
    {"molecule": "CC1CC[C@@]2(OC1)O[C@H]1CC3C4C[C@@H](O)C5C[C@@H](O[C@@H]6O[C@H](CO)[C@H](O[C@@H]7O[C@H](CO)[C@@H](O)[C@H](O[C@@H]8OC[C@@H](O)[C@H](O)[C@H]8O)[C@H]7O[C@@H]7O[C@H](CO)[C@@H](O)[C@H](O)[C@H]7O)[C@H](O)[C@H]6O)[C@H](O)C[C@]5(C)C4CC[C@]3(C)[C@H]1[C@@H]2C", "note": "(stereo partly drawn) [A16, Aginoside]", "values": [
      {"measurement": "biofilm formation", "setting": "C. albicans biofilm", "value": "able to inhibit biofilm formation"},
      {"measurement": "maximum nematode survival", "setting": "C. albicans; dose response, C. albicans-infected C. elegans", "value": 67, "unit": "%"},
      {"measurement": "EC50 in vivo", "setting": "C. albicans; dose that resulted in 50% survival of C. albicans-infected nematodes", "value": 47.0, "unit": "µg/mL"},
      {"measurement": "MIC", "setting": "C. albicans strains", "value": 16, "unit": "µg/mL"},
      {"measurement": "MIC", "setting": "C. albicans strains; C. albicans DAY185", "value": 16, "unit": "µg/mL"},
      {"measurement": "MIC", "setting": "C. albicans strains; echinocandin-resistant strain A15", "value": 16, "unit": "µg/mL"},
      {"measurement": "toxicity to the nematode", "setting": "C. elegans", "value": "none of the concentrations used in the dose response experiment showed signs of toxicity"},
      {"measurement": "MIC in vitro", "setting": "[1]", "value": 47.0, "unit": "µg/mL"},
      {"measurement": "effect on uptake of PS by the cells", "setting": "C. albicans cells", "value": "dramatically increased the uptake of PS"}
    ]}
  ]
}
